# Reference: PMC13447983, “Identifying and characterising a plant GH1 β‐glucosidase that exhibits hydrolytic activity on N‐linked glucopyranoside” (FEBS Open Bio, 2026)
# Target: T1, ZmGlu1 (Zea mays, UniProt P49235)
# T1 construct: gene GLU1; E. coli BL21 Star (DE3)
# Assay: HPLC of released methyl anthranilate at […] nm, Michaelis-Menten fit
# Format: biochemical
# Conditions: 50 mM phosphate pH 6.0, 35 °C, 3 μM enzyme, 1.17-20 mM substrate
# T1 sequence (P49235 55-566): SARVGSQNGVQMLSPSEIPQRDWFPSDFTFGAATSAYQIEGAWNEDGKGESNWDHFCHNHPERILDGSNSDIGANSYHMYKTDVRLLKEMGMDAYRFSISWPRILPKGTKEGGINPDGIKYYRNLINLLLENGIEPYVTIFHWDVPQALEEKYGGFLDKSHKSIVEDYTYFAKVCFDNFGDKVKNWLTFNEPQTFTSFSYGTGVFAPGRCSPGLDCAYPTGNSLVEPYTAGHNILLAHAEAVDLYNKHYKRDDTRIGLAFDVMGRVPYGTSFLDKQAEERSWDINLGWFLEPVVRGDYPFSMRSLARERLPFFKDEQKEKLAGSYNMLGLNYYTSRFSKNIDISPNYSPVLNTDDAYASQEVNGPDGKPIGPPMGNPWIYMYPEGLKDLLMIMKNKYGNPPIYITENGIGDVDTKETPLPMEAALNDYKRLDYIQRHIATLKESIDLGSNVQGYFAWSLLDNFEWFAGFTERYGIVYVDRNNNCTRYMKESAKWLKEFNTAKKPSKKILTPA
smiles,measurement,value
"COC(=O)c1ccccc1N[C@@H]1O[C@H](CO)[C@@H](O)[C@H](O)[C@H]1O [MANT‐N‐glucose, methyl anthranilate‐N‐β‐D‐glucopyranoside]",Km,13.7 ± 1.22 mM
